Experimental data from ChEMBL document CHEMBL4196076, “An access to a library of novel triterpene derivatives with a promising pharmacological potential by Ugi and Passerini multicomponent reactions” (Eur J Med Chem, 2018).

Assays:
[1] = test system: A2780; test: Cytotoxicity against human A2780 cells after 96 hrs by sulforhodamine-B assay; type: functional, cell-based; settings: A2780, 96 h
[2] = test system: NIH3T3; test: Cytotoxicity against mouse NIH/3T3 cells after 96 hrs by sulforhodamine-B assay; type: cell-based; settings: NIH3T3, 96 h
[3] = test system: FaDu; test: Cytotoxicity against human FADU cells after 96 hrs by sulforhodamine-B assay; type: functional, cell-based
[4] = test system: HT-29; test: Cytotoxicity against human HT-29 cells after 96 hrs by sulforhodamine-B assay; type: functional, cell-based; settings: HT-29, 96 h
[5] = test system: MCF7; test: Cytotoxicity against human MCF7 cells after 96 hrs by sulforhodamine-B assay; type: functional, cell-based; settings: MCF7, 96 h
[6] = test system: 518A2; test: Cytotoxicity against human 518A2 cells after 96 hrs by sulforhodamine-B assay; type: functional, cell-based; settings: 518A2, 96 h
[7] = test system: A549; test: Cytotoxicity against human A549 cells after 96 hrs by sulforhodamine-B assay; type: functional, cell-based; settings: A549, 96 h

Row | Structure (SMILES) | EC50 [1] | EC50 [2] | EC50 [3] | EC50 [4] | EC50 [5] | EC50 [6] | EC50 [7]
1 | C=CCN(CC(=O)NCc1ccccc1)C(=O)[C@]12CCC(C)(C)C[C@H]1C1=CC[C@@H]3[C@@]4(C)CC[C@H](OC(C)=O)C(C)(C)[C@@H]4CC[C@@]3(C)[C@]1(C)CC2 | 6 µM | > 30 µM | 15.5 µM | > 30 µM | 19.2 µM | 18.9 µM | –
2 | CN(CC(=O)NC(C)(C)C)C(=O)[C@]12CCC(C)(C)C[C@H]1C1=CC[C@@H]3[C@@]4(C)CC[C@H](O)C(C)(C)[C@@H]4CC[C@@]3(C)[C@]1(C)CC2 | 11 µM | 11.2 µM | 8.1 µM | 13.8 µM | 12.2 µM | 7.9 µM | 8.6 µM
3 | CC(=O)O[C@@H]1C[C@]2(C)[C@H]3CC=C4[C@@H]5CC(C)(C)CC[C@]5(C(=O)N(CC(=O)NC(C)(C)C)Cc5ccoc5)CC[C@@]4(C)[C@]3(C)CC[C@H]2C(C)(C)[C@H]1OC(C)=O | 0.4 µM | 7.3 µM | 3 µM | 3.4 µM | 4 µM | 3.9 µM | 3.5 µM
4 | CCCCN(CC(=O)NCc1ccccc1)C(=O)[C@]12CCC(C)(C)C[C@H]1C1=CC[C@@H]3[C@@]4(C)CC[C@H](O)C(C)(C)[C@@H]4CC[C@@]3(C)[C@]1(C)CC2 | > 30 µM | > 30 µM | > 30 µM | 15.6 µM | 24.6 µM | > 30 µM | –
5 | CC1(C)CC[C@]2(C(=O)O)CC[C@]3(C)C(=CC[C@@H]4[C@@]5(C)CC[C@H](O)C(C)(C)[C@@H]5CC[C@]43C)[C@@H]2C1 [OLEANOLIC_ACID] | 58.2 µM | 57.9 µM | 66.7 µM | 44.9 µM | 49.1 µM | 61.3 µM | 64.1 µM
6 | CCCCNC(=O)CN(Cc1ccoc1)C(=O)[C@]12CCC(C)(C)C[C@H]1C1=CC[C@@H]3[C@@]4(C)CC[C@H](OC(C)=O)C(C)(C)[C@@H]4CC[C@@]3(C)[C@]1(C)CC2 | 5.6 µM | > 30 µM | 17.9 µM | > 30 µM | 13.9 µM | 11.3 µM | 16.2 µM
7 | C=CCN(CC(=O)NCc1ccccc1)C(=O)[C@]12CCC(C)(C)C[C@H]1C1=CC[C@@H]3[C@@]4(C)CC[C@H](O)C(C)(C)[C@@H]4CC[C@@]3(C)[C@]1(C)CC2 | 12.9 µM | > 30 µM | > 30 µM | > 30 µM | > 30 µM | > 30 µM | > 30 µM
8 | CC(=O)O[C@H]1CC[C@]2(C)[C@H]3CC=C4[C@@H]5CC(C)(C)CC[C@]5(C(=O)N(CC(=O)NC(C)C)Cc5ccoc5)CC[C@@]4(C)[C@]3(C)CC[C@H]2C1(C)C | 3.6 µM | 10.1 µM | 12.5 µM | 9.6 µM | 16.7 µM | 6.5 µM | 7.5 µM
9 | CC1(C)CC[C@]2(C(=O)N(CC(=O)NC(C)(C)C)Cc3ccccc3)CC[C@]3(C)C(=CC[C@@H]4[C@@]5(C)CC[C@H](O)C(C)(C)[C@@H]5CC[C@]43C)[C@@H]2C1 | 13.5 µM | 8.8 µM | 17.8 µM | 11.5 µM | 14.8 µM | 11.4 µM | –
10 | CCCCNC(=O)CN(Cc1ccoc1)C(=O)[C@]12CCC(C)(C)C[C@H]1C1=CC[C@@H]3[C@@]4(C)CC[C@H](O)C(C)(C)[C@@H]4CC[C@@]3(C)[C@]1(C)CC2 | 17.6 µM | > 30 µM | > 30 µM | 15.9 µM | 15.5 µM | > 30 µM | –
11 | C=CCN(CC(=O)NCCCC)C(=O)[C@]12CCC(C)(C)C[C@H]1C1=CC[C@@H]3[C@@]4(C)CC[C@H](O)C(C)(C)[C@@H]4CC[C@@]3(C)[C@]1(C)CC2 | 19.3 µM | > 30 µM | > 30 µM | > 30 µM | 21.3 µM | > 30 µM | –
12 | CC1(C)CC[C@]2(C(=O)O)CC[C@]3(C)C(=CC[C@@H]4[C@@]5(C)C[C@@H](O)[C@H](O)C(C)(C)[C@@H]5CC[C@]43C)[C@@H]2C1 [MASLINIC ACID] | – | – | 17 µM | – | 37.2 µM | – | –
13 | CC(=O)O[C@@H]1C[C@]2(C)[C@H]3CC=C4[C@@H]5CC(C)(C)CC[C@]5(C(=O)O)CC[C@@]4(C)[C@]3(C)CC[C@H]2C(C)(C)[C@H]1OC(C)=O | 10.5 µM | 12.2 µM | 21.3 µM | 25.5 µM | 1.6 µM | – | 18.9 µM
14 | CCCCNC(=O)CN(Cc1ccccc1)C(=O)[C@]12CCC(C)(C)C[C@H]1C1=CC[C@@H]3[C@@]4(C)CC[C@H](O)C(C)(C)[C@@H]4CC[C@@]3(C)[C@]1(C)CC2 | > 30 µM | > 30 µM | > 30 µM | > 30 µM | > 30 µM | > 30 µM | –
